# “Also recorded” adds a separate entry of the source. Where a name gives a salt, the structure may show the parent alone.
# Columns and labels:
# [1] = system: children with ASD and low CSF folate concentrations; settings: high-dose; case reports and series; cited from earlier work
# [2] = system: children with ASD who were positive for at least one FRAA; test: Controlled open-label study of high-dose folinic acid (Example 1); type: in vivo, human; settings: 2 mg kg^−1 per day in two divided doses, maximum 50 mg per day
# [3] = system: children with non-syndromic autism spectrum disorder (ASD) and language impairment; test: Randomized placebo-controlled trial: adverse effects monitoring; type: in vivo, human
# Excerpt: Adverse events were monitored every 3 weeks using a modification of the Dosage Record Treatment Emergent Symptom Scale. Adverse events were considered related to the treatment if they started or worsened following the start of the trial. If adverse events were persistent or severe, the parents were offered the option of halving the dose or discontinuing the intervention. The dose could only be reduced once and was never increased if reduced.
# The total number of patients reporting each adverse event was compared across treatment groups using a Fisher exact test. Adverse events that were possibly, probably or definitely related to the treatments were analyzed.
# [4] = folinic acid group n = 21, 12 weeks
structure (smiles),measurement,setting,value
"Nc1nc2c(c(=O)[nH]1)N(C=O)C(CNc1ccc(C(=O)N[C@@H](CCC(=O)O)C(=O)O)cc1)CN2 (mixture of isomers) [Folinic acid, DL folinic acid calcium salt]",Symptoms in children with ASD and low CSF folate concentrations,[1],markedly improves symptoms
same,Adverse effects,[2],very few adverse effects reported
same,"Improvements in verbal communication, receptive and expressive language, attention, and stereotypical behavior",[2],significant improvements
same,"Adverse effects, difference between treatment groups (folinic acid vs placebo)","[3]; 2 mg kg^−1 per day, 12 weeks, Fisher exact test, calcium salt",no significant difference; also recorded: no significant group differences
same,"Aggression, incidence",[3]; [4],(10%)
same,"Any adverse effect, incidence",[3]; [4],(57%)
same,"Blurred vision, incidence",[3]; [4],(0%)
same,"Confusion, incidence",[3]; [4],(5%)
same,"Constipation, incidence",[3]; [4],(10%)
same,"Decreased appetite, incidence",[3]; [4],(10%)
same,"Decreased motor activity, incidence",[3]; [4],(0%)
same,"Depression, incidence",[3]; [4],(5%)
same,"Diarrhea, incidence",[3]; [4],(5%)
same,"Dizziness, incidence",[3]; [4],(0%)
same,"Drowsiness, incidence",[3]; [4],(0%)
same,"Dry mouth, excessive thirst, incidence",[3]; [4],(14%)
same,"Emotional lability, incidence",[3]; [4],(5%)
same,"Excitement or agitation, incidence",[3]; [4],(29%)
same,"Gastroesophageal reflux, incidence",[3]; [4],(5%)
same,"Headache, incidence",[3]; [4],(10%)
same,"Increased motor activity, incidence",[3]; [4],(29%)
same,"Increased salivation, incidence",[3]; [4],(0%)
same,"Increased tantrums, incidence",[3]; [4],(5%)
same,"Insomnia, incidence",[3]; [4],(29%)
same,"Involuntary movements, incidence",[3]; [4],(10%)
same,"Nasal congestion, incidence",[3]; [4],(0%)
same,"Nausea/vomiting, incidence",[3]; [4],(0%)
same,"Rash, incidence",[3]; [4],(0%)
same,"Restlessness, incidence",[3]; [4],(14%)
same,"Stiffness, incidence",[3]; [4],(5%)
same,"Sweating, incidence",[3]; [4],(0%)
same,"Tremors, incidence",[3]; [4],(0%)
same,"Weight gain, incidence",[3]; [4],(10%)
same,"Weight loss, incidence",[3]; [4],(5%)
same,Serious adverse events,"[3]; folinic acid group, 2 mg kg^−1 per day, 12 weeks",no serious adverse events

# Source: patent US20190111059A1, “COMPOSITIONS AND METHODS FOR TREATING AUTISM SPECTRUM DISORDER” (Marinus Pharmaceuticals, Inc., priority 2017, published 2019)
